Experimental data from ChEMBL document CHEMBL1201862, “PubChem BioAssay data set” (2004).
Active and inactive are the calls of the source.

What was measured:
[1] = biological target: Prothrombin (Homo sapiens, UniProt P00734); test: Thrombin 1536 HTS Dose Response Confirmation. [Related pubchem assays: 1046 (Thrombin 1536 HTS; hits were confirmed in this assay)]; assay type: functional
[2] = biological target: T1, Histone-lysine N-methyltransferase NSD2 (Homo sapiens, UniProt O96028); assay type: biochemical
T1 sequence (O96028 whole entry): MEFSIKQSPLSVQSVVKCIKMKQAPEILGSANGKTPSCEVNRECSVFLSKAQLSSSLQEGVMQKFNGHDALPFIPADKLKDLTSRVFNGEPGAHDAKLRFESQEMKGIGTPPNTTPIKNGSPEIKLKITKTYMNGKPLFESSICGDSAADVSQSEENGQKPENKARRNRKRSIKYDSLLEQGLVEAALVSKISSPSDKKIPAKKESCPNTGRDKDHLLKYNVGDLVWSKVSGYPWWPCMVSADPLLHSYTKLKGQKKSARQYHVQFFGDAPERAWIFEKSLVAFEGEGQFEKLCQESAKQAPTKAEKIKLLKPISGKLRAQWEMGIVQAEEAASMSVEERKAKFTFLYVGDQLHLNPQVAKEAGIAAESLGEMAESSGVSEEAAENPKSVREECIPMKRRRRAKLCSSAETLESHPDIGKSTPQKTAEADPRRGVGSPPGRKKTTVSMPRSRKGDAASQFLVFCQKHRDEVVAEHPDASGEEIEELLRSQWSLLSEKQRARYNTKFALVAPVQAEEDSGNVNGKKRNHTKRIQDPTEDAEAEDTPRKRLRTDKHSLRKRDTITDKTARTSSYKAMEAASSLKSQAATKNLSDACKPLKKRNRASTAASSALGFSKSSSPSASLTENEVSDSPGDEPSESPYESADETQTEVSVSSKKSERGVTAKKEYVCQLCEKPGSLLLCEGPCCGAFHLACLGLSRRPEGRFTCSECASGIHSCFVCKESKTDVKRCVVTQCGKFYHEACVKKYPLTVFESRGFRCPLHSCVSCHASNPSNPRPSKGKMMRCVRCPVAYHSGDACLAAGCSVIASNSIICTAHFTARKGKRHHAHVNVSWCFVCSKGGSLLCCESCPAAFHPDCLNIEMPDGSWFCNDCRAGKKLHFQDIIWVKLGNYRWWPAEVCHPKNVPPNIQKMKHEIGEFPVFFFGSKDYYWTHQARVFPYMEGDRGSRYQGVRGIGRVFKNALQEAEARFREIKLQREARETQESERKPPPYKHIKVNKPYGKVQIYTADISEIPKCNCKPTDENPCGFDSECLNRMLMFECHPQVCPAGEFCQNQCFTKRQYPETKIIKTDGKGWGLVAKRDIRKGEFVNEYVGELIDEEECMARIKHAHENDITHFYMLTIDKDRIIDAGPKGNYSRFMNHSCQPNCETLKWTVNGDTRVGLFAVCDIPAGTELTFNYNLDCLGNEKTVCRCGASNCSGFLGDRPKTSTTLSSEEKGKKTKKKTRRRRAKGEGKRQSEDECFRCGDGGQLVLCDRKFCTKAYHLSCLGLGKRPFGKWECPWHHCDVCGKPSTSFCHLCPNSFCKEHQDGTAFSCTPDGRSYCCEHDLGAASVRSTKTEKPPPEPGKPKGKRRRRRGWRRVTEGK

[3] = biological target: Cytochrome P450 2C19 (Homo sapiens, UniProt P33261); test: Cytochrome panel assay with activity outcomes. Panel member name: p450-cyp2c19 Compounds with AC50 equal or less than 10 uM are considered active; assay type: functional; details: read-out: AC50
Cytochrome P450 2C19, sequence (P33261 whole entry): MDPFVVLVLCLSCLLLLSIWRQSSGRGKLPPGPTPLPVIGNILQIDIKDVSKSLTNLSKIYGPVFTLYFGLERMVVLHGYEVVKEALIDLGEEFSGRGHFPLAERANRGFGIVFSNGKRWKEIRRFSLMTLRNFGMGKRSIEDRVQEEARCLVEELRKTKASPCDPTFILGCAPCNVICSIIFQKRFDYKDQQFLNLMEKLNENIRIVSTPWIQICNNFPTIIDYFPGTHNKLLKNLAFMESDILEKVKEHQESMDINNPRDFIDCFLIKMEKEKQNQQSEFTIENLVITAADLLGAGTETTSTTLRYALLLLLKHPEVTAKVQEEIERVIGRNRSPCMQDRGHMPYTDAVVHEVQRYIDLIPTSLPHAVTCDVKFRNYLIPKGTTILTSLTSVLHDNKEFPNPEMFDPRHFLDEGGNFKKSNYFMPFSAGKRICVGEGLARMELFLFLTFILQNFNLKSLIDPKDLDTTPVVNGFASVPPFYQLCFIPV

[4] = intracellular Trypanosoma cruzi inhibitors in host cells – cell-based, plate reader, cherry-pick samples, set 3, dose response (AID 651818); assay type: functional;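 further: compounds incubated with infected cells for about four days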
[5] = biological target: Eukaryotic translation initiation factor 4E (Mus musculus, UniProt P63073); test: eIF4E–eIF4G protein interaction inhibitors, dose response, biochemical, TR-FRET (AID 855); assay type: functional;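 further: potency for disrupting eIF4E binding to eIF4GI seen as loss of FRET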
Eukaryotic translation initiation factor 4E, sequence (P63073 whole entry): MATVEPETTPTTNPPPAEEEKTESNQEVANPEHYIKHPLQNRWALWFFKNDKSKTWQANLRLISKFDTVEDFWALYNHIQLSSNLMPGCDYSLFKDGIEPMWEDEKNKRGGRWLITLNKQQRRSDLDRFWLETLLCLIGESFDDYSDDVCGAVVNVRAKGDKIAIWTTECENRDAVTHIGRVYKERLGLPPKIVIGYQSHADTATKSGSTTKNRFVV

[6] = biological target: Large T antigen (Simian virus 40, UniProt P03070); assay type: functional, Betapolyomavirus macacae;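 further: Confirmatory-stage PubChem screen for compounds that inhibit SV40 T antigen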
Large T antigen, sequence (P03070 whole entry): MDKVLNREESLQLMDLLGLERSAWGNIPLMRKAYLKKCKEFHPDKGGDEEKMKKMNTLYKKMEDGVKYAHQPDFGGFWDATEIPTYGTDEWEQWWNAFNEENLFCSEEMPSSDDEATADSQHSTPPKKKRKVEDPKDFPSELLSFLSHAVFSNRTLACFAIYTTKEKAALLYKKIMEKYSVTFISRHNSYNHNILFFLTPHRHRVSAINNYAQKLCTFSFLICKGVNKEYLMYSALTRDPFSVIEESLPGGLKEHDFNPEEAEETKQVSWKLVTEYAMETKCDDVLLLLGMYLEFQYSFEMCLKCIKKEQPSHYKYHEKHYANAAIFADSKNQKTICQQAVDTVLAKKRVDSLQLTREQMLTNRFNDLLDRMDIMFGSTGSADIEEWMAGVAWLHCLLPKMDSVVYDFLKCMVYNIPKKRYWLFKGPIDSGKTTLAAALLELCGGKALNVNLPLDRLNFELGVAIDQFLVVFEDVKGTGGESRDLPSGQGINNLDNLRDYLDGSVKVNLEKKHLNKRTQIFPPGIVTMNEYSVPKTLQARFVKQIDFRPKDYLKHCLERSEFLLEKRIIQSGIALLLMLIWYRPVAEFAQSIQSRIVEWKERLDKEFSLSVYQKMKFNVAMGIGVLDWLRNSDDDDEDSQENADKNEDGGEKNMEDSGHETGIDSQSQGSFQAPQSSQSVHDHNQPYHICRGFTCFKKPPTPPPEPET

[7] = biological target: T2, Polyadenylate-binding protein 1 (Homo sapiens, UniProt P11940); test: PABP1 MLLE–PAM2 binding inhibitor potency, dose response, biochemical, fluorescence polarization, FITC-PAM2 peptide (AID 602259); assay type: functional; details: read-out: IC50_Mean
T2 sequence (P11940 whole entry): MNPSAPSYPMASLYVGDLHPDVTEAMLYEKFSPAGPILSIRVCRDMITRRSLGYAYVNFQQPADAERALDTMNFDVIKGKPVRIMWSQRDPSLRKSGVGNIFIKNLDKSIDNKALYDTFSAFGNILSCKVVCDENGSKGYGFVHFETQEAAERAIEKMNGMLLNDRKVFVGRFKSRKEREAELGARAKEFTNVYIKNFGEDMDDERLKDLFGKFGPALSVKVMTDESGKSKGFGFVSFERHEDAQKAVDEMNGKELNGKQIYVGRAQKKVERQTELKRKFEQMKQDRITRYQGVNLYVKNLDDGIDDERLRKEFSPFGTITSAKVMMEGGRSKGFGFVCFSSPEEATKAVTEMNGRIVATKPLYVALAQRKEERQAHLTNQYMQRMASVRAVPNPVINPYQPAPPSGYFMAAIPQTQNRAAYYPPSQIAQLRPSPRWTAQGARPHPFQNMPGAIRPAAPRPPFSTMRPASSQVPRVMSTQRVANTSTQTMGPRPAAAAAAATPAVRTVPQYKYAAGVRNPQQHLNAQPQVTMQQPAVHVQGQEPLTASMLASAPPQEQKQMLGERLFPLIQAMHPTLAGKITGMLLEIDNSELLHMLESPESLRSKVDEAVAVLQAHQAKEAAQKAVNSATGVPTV

[8] = biological target: T2, Polyadenylate-binding protein 1; test: PABP1 MLLE–PAM2 interaction inhibitors, dose response, miRNA deadenylation inhibitor project, biochemical, fluorescence polarization, Cy5-PAM2 peptide, secondary (AID 602260); assay type: functional; details: read-out: IC50_Mean
[9] = biological target: Cytochrome P450 2C9 (Homo sapiens, UniProt P11712)
Cytochrome P450 2C9, sequence (P11712 whole entry): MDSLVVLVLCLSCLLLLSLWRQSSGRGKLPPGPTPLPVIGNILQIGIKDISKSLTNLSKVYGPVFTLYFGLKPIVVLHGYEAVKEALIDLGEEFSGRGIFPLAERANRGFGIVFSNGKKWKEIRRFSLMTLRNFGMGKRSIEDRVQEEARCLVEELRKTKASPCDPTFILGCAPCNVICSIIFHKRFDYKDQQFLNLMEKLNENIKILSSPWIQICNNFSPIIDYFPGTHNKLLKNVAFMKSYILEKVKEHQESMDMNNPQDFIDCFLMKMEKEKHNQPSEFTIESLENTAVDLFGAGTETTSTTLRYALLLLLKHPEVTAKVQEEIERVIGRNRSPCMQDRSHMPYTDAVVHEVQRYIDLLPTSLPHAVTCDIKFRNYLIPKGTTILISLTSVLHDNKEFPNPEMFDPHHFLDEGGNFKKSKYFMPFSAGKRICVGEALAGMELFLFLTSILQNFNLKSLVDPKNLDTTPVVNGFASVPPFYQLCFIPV

[10] = biological target: T3, Protein RecA (Mycobacterium tuberculosis, UniProt P9WHJ3); test: Fluorescence Cell-Free Homogeneous Dose Retest to Identify Inhibitors of RecA-Intein Splicing Activity. [Related pubchem assays (depositor defined):AID2097, AID2223, AID489010, AID492950]; assay type: functional
T3 sequence (P9WHJ3 whole entry): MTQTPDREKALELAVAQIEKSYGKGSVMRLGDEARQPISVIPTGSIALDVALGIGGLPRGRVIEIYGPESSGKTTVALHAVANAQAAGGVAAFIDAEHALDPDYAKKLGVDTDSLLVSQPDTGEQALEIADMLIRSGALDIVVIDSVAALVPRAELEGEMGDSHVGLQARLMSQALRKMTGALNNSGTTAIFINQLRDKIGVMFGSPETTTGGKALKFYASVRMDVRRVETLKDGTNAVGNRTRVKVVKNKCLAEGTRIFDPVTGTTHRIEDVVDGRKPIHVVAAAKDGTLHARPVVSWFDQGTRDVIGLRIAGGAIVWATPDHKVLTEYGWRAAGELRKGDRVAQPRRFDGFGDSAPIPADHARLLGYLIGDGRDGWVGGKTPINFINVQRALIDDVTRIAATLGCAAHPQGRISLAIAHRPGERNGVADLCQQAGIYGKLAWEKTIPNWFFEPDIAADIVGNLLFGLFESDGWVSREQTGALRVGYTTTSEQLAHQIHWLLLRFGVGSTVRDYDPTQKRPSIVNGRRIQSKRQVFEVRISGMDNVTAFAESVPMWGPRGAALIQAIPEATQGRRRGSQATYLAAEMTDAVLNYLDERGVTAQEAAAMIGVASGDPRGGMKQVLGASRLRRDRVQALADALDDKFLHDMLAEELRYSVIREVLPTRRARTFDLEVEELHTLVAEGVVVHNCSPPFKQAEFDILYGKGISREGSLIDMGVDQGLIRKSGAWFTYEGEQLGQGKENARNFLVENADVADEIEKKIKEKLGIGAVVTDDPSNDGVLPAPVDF

[11] = biological target: T4, Replicative DNA helicase DnaB (Mycobacterium tuberculosis, UniProt P9WMR3); test: DnaB intein splicing inhibitors, dose response, biochemical, cell-free fluorescence (AID 449749); assay type: functional
T4 sequence (P9WMR3 whole entry): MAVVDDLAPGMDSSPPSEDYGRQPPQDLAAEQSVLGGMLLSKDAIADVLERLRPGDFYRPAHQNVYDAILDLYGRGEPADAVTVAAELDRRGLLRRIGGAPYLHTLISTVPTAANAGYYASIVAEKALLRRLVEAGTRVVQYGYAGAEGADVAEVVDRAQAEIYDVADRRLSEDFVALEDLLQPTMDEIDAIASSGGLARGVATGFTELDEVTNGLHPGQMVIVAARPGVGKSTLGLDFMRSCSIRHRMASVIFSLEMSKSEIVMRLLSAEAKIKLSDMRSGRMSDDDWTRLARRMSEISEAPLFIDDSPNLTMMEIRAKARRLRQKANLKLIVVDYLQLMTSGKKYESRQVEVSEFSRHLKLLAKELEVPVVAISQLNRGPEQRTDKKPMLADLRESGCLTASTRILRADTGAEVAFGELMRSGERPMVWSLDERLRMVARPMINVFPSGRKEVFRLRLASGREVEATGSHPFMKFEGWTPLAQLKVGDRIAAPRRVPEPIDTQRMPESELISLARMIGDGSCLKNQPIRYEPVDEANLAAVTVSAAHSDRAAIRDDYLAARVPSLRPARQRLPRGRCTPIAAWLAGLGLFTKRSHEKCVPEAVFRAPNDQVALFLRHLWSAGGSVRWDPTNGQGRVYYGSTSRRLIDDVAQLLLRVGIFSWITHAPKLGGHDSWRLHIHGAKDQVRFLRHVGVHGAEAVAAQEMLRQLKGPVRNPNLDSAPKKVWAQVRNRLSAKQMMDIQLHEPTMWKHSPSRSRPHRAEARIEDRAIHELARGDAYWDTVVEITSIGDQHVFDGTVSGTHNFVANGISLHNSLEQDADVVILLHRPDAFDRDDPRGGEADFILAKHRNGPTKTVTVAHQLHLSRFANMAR

[12] = biological target: Ephrin type-A receptor 4 (Mus musculus, UniProt Q03137); test: inhibitors of EphA4 binding to KYL peptide, primary screen, biochemical, colorimetric, mouse EphA4 (AID 689); assay type: functional
Ephrin type-A receptor 4, sequence (Q03137 whole entry, the tested form may be a part): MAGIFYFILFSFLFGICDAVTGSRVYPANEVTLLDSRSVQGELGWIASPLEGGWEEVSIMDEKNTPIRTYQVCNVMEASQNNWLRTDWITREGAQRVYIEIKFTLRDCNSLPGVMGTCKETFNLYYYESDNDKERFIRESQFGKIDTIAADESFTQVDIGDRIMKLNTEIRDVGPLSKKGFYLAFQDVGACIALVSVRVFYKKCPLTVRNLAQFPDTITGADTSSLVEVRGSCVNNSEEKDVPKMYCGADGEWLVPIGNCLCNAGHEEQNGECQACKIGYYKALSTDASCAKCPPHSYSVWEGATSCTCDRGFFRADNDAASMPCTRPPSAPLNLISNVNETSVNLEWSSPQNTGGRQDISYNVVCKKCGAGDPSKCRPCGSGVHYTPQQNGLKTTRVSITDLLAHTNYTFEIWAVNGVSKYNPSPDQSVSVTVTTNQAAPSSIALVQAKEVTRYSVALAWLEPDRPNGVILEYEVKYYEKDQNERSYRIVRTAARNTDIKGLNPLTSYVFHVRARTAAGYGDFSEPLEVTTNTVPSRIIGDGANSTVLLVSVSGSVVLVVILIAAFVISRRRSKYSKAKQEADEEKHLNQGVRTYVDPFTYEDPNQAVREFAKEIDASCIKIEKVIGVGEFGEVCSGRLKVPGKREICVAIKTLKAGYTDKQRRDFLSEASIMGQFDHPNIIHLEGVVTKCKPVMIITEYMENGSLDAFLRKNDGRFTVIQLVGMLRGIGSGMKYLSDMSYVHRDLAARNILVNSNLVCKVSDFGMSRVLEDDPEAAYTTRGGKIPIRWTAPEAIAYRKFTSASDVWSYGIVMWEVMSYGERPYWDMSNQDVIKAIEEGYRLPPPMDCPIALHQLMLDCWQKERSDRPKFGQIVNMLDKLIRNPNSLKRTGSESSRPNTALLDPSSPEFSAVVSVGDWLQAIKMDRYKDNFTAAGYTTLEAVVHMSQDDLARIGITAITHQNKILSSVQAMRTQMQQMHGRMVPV

[13] = inhibitors of HIV Env-driven cell fusion, dose response, cherry-pick (AID 652057); assay type: functional, cell-based
[14] = off-target signal loss in HeLa-CEM21 co-culture – HeLa F-luc CTL cells, cherry-picked, counter-screen for HIV-1 Env fusion inhibitor project, dose response (AID 652040); assay type: functional, cell-based;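 further: potency for signal decrease marking cytotoxic or nonspecific inhibition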
[15] = inhibitors of clade B AD8 Env fusion, dose response, cell-based, cherry-pick (AID 652062); assay type: functional;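 further: luciferase signal from cell-cell fusion driven by HIV-1 clade B AD8 Env; potency is for inhibitors of fusion seen as a drop in luminescence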
[16] = ZM109 Env clade C HIV-1 fusion inhibitors, dose response, HeLa effector, CEM target cells, luciferase, cherry-pick (AID 652058); assay type: functional, cell-based
[17] = biological target: T5, Estrogen receptor beta (Homo sapiens, UniProt Q92731); test: ERβ–SRC-3 coactivator interaction inhibitors, confirmation, orthogonal assay, biochemical, ELISA, streptavidin-HRP readout (AID 1060)
T5 sequence (Q92731 whole entry): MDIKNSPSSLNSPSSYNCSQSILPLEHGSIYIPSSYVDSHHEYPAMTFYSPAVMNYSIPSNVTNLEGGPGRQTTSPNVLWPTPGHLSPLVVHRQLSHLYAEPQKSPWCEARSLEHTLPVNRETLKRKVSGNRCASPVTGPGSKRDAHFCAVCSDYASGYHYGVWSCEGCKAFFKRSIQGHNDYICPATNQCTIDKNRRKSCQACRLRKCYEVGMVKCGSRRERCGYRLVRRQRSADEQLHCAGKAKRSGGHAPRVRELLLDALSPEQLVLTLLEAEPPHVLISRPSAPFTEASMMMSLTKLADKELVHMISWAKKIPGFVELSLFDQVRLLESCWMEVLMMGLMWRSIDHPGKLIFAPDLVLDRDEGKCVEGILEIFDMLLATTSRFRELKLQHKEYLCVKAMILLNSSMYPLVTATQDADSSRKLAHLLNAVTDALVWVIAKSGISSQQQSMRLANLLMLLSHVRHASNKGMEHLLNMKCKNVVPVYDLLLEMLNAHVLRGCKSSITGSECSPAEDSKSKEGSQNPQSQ

[18] = biological target: T5, Estrogen receptor beta
[19] = biological target: FAD-linked sulfhydryl oxidase ALR (Homo sapiens, UniProt P55789); test: inhibitors of human ALR sulfhydryl oxidase, dose response, biochemical, H2O2 detection, luminescence, cherry-pick (AID 493248)
FAD-linked sulfhydryl oxidase ALR, sequence (P55789 whole entry): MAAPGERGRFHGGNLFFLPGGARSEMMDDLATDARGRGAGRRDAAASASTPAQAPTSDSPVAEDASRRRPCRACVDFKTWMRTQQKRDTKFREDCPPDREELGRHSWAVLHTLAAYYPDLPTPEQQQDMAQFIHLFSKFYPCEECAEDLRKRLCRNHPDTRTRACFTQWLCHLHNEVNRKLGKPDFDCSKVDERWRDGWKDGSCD

[20] = biological target: Glyceraldehyde-3-phosphate dehydrogenase (Homo sapiens, UniProt P04406)
Glyceraldehyde-3-phosphate dehydrogenase, sequence (P04406 whole entry): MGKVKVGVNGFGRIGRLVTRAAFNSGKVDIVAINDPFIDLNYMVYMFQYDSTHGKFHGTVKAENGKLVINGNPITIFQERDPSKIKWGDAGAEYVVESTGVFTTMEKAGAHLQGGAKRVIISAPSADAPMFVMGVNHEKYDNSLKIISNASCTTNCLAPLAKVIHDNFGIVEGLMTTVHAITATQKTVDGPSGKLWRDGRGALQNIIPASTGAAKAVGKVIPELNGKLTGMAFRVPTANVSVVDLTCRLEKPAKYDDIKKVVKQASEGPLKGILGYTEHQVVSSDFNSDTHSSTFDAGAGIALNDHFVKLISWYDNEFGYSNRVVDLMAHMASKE

Cn1nccc1-c1cc(Cl)cc(Cl)c1O
IC50 [1]: > 50 µM (not active)

CCN(CC)CCCN(Cc1cc2ccc(C)c(C)c2nc1O)C(=O)NC1CCCCC1
AC50 [2]: > 20 µM (inactive)
AC50 [3]: 39.8 µM (inconclusive)

O=C(NCc1ccccc1)c1nc(-c2cccs2)no1
IC50 [1]: > 50 µM (not active)

Cc1ccc(S(=O)(=O)Nc2cccc3c2O[C@@H](CN(C)Cc2ccc(C(=O)Nc4ccccc4N)cc2)[C@@H](C)CN([C@@H](C)CO)C3=O)cc1
AC50 [4]: 2.17 µM (active)

CCc1nnc(NC(=O)Cc2ccc(OCc3c(C)noc3C)cc2)s1
IC50 [5]: > 64 µM (inactive)

Oc1ccc(/C=N/NC(=S)Nc2cccnc2)cc1
IC50 [6]: 19.4 µM (active)
IC50 [7]: > 66 µM (inactive)
IC50 [8]: > 66 µM (inactive)

COc1ccc(-c2nn3cnnc3s2)cc1OC
IC50 [1]: > 50 µM (not active)
AC50 [9]: 1.41 µM (inconclusive)

Cc1ccc(SC(=O)c2c(C)noc2-c2cc(C)on2)cc1
EC50 [10]: 8.74 µM (active)
AC50 [11]: 6.38 µM (active)
IC50 [7]: > 66 µM (inactive)
IC50 [8]: > 66 µM (inactive)

COc1ccc(S(=O)(=O)Nc2ccc3c(c2)CC(=O)N([C@H](C)CO)C[C@@H](C)[C@@H](CN(C)S(=O)(=O)c2ccc(Cl)cc2)O3)cc1
AC50 [4]: 1.97 µM (active)

CCSc1nnc(NC(=O)c2ccco2)s1
IC50 [1]: > 50 µM (not active)

CC(=O)N(c1ccc2oc(=O)sc2c1)S(=O)(=O)c1ccccc1
IC50 [12]: > 100 µM (not active)
IC50 [6]: 30.3 µM (active)

CC(C)(C)NC(=O)C(c1ccccc1)N(Cc1cccs1)C(=O)c1csnn1 (stereo not given)
AC50 [13]: 6.9 µM (active)
AC50 [14]: 38.5 µM (active)
AC50 [15]: 8.36 µM (active)
AC50 [16]: 5.72 µM (active)

COc1ccc(NC(=O)Nc2ccc3c(c2)CC(=O)N([C@H](C)CO)C[C@@H](C)[C@@H](CN(C)Cc2ccc(-c4ccccc4)cc2)O3)cc1
AC50 [4]: 3.14 µM (active)

Cc1noc(C)c1NC(=O)Nc1cccc2c1O[C@H](CN(C)Cc1ccc(C(F)(F)F)cc1)[C@@H](C)CN([C@H](C)CO)C2=O
AC50 [4]: 10.4 µM (active)

COc1ccc(NC(=O)Nc2cccc3c2O[C@H](CN(C)Cc2ccc(C(=O)Nc4ccccc4N)cc2)[C@H](C)CN([C@@H](C)CO)C3=O)cc1
AC50 [4]: 5.98 µM (active)

COc1cccc2cc3c(=O)n(-c4ccccc4)nc-3oc12
IC50 [17]: > 50 µM (not active)
IC50 [18]: 15.7 µM (active)

O=C(C[C@H]1CC[C@@H](NC(=O)Nc2ccccc2F)[C@@H](CO)O1)NCc1ccc(Cl)cc1
AC50 [13]: 5.2 µM (active)
AC50 [15]: 18.8 µM (active)
AC50 [16]: 5.31 µM (active)

O=C(CSc1nnc(Cn2nnc(-c3ccccc3)n2)n1-c1ccccc1)Nc1ccc(F)cc1
IC50 [1]: > 50 µM (not active)

CCN(CCCNC(=O)CN(C)S(=O)(=O)c1cccc2nsnc12)c1cccc(C)c1
IC50 [12]: > 100 µM (not active)
AC50 [19]: 3.31 µM (active)

NS(=O)(=O)c1ccc(CCNC(=O)Cc2cccs2)cc1
IC50 [20]: > 100 µM (not active)
